Numbers after ± are expanded uncertainties.
Conditions: 298.15 K; 101.33 kPa; Liquid; Vibrating tube method

| mass density | Compound |
| --- | --- |
| 1754.28 ± 0.44 kg/m3 | FC(F)(F)C(F)(F)C(F)(F)C(F)(F)C(F)(F)C(F)(F)C(F)(F)C(F)(F)F [octadecafluorooctane] |
| 1670.07 ± 0.32 kg/m3 | FC(F)(F)C(F)(F)C(F)(F)C(F)(F)C(F)(F)C(F)(F)F [perfluorohexane] |
